target: rSmCA (recombinant SmCA, α-carbonic anhydrase) (Schistosoma mansoni, UniProt A0A3Q0KSG2); assay: biochemical; assay type: biochemical; conditions: not given
Sequence (A0A3Q0KSG2 21-298 limits assumed): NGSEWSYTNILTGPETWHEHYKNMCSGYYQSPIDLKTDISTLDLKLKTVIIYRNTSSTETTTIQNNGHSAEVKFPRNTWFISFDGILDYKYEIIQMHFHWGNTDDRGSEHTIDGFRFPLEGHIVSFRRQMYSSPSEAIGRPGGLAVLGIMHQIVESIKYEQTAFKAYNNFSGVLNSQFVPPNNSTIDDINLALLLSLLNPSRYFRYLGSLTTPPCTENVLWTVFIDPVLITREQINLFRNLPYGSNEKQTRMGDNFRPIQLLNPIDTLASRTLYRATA

Going from `CC1(C)O[C@@H]2[C@@H](CO[C@@]3(COS(N)(=O)=O)OC(C)(C)O[C@@H]23)O1` [TPM, topiramate] to `CCN[C@H]1CN(CCCOC)S(=O)(=O)c2sc(S(N)(=O)=O)cc21` [BRZ, brinzolamide], the Ki falls from 0.000568 mM to 4.66e-05 mM (12-fold).

Compared with `OB(O)c1ccccc1` [Ph-B(OH) 2, phenylboronic acid], `NS(=O)(=O)c1nnc(NS(=O)(=O)c2ccccc2)s1` [BZA, benzolamide] is 590-fold lower in Ki: 0.02 mM for the first, 3.41e-05 mM for the second.

Compared with `NS(=O)(=O)c1ccc(S(=O)(=O)Nc2cccc3c(Cl)c[nH]c23)cc1` [IND, indisulam], `Cc1onc(-c2ccccc2)c1-c1ccc(S(N)(=O)=O)cc1` [VLX, valdecoxib] is 12-fold higher in Ki: 3.65e-05 mM for the first, 0.000431 mM for the second.

Going from `NS(=O)(=O)Cc1noc2ccccc12` [ZNS, zonisamide] to `O=C1NS(=O)(=O)c2ccccc21` [SAC, saccharin], the Ki rises from 0.000937 mM to over 0.05 mM. The first binds more tightly here.

Going from `NS(=O)(=O)c1cc2c(cc1Cl)NCNS2(=O)=O` [HCT, hydrochlorothiazide] to `NS(=O)(=O)c1ccc(N2CCCCS2(=O)=O)cc1` [SLT, sulthiame], the Ki rises from 0.000399 mM to 0.00356 mM (8.9-fold). The first binds more tightly here.

In the case of `CC(=O)/N=c1/sc(S(N)(=O)=O)nn1C` [MZA, methazolamide], the Ki is reported as 3.89e-05 mM.

With `OB(O)c1ccccc1` [Ph-B(OH) 2, phenylboronic acid] the “higher affinity for SmCA versus human isoforms hCA I or hCA II” value was over 1000 fold.

With `NS(N)(=O)=O` [H 2 NSO 2 NH 2, sulfamide] the “greater potency over SmCA versus hCA I” value was 44 fold.

In the case of `NS(N)(=O)=O` [H 2 NSO 2 NH 2, sulfamide], the “greater potency over SmCA versus hCA II” value is reported as 161 fold.

same assay, conditions: read-out: Ki SmCA

First: O=[N+]([O-])O [NO3−, nitrate]
Second: O=[Te](=O)(O)O [TeO4^2−]
The Ki of the first is lower: 7.87 mM for the first, over 100 mM for the second.

CS3^2− and `[O]=[Sn]([OH])[OH]` [SnO3^2−] are within 1.5-fold of each other in Ki: 6.16 mM for the first, 4.11 mM for the second.

Compared with `[N-]=[N+]=[N-]` [N3^−, azide], S2O8^2− is 3.2-fold higher in Ki: 2.43 mM for the first, 7.85 mM for the second. The first binds more tightly here.

First: P2O7^4−
Second: I [I^−, iodide]
The Ki of the first is higher: over 100 mM for the first, 5.11 mM for the second. The second binds more tightly here.

Compared with `N#C[SeH]` [SeCN^−], OsO5^2− is 3.5-fold higher in Ki: 2.16 mM for the first, 7.55 mM for the second.

CF3SO3^− and SO4^2− are within 1.5-fold of each other in Ki: 5.62 mM for the first, 6.86 mM for the second.

Compared with `NS(N)(=O)=O` [H 2 NSO 2 NH 2, sulfamide], `O=[Se](=O)(O)O` [SeO4^2−] is 900-fold higher in Ki: 0.007 mM for the first, 6.33 mM for the second.

`O=S(=O)(O)F` [FSO3^−] and `S` [HS^−, hydrosulfide] are within 1.5-fold of each other in Ki: 6.02 mM for the first, 5.96 mM for the second.

First: [O]=[Ru](=[O])(=[O])=[O] [RuO4^−]
Second: O=S(O)O [HSO3^−]
The Ki of the first is lower: 2.07 mM for the first, over 100 mM for the second.

First: [Br-].[K+] [Br−, bromide]
Second: N#CS [SCN−, thiocyanate]
The Ki of the first is 3-fold higher: 9.35 mM for the first, 3.15 mM for the second.

`O=C(O)O` [HCO3−] and `F` [F^−, fluoride] are within 1.5-fold of each other in Ki: 5.1 mM for the first, 6.44 mM for the second.

Going from `[O]=[Re](=[O])(=[O])[OH]` [ReO4^−] to `N#CO` [CNO^−, cyanate], the Ki falls from 8.75 mM to 4.18 mM (2.1-fold).

Compared with `CCN(CC)C(=S)S` [Et2NCS2^−], `[O-][Cl+3]([O-])([O-])O` [ClO4^−, perchlorate] is higher in Ki: 0.59 mM for the first, over 100 mM for the second. The first binds more tightly here.

target: recombinant human isoform hCA II; assay: not given; conditions: cited from earlier work

Going from `O=[As](O)(O)c1ccccc1` [Ph-AsO 3 H 2, phenylarsonic acid] to `CCN(CC)C(=S)S` [Et2NCS2^−], the Ki falls from 49.2 mM to 0.0031 mM (16000-fold).

In the case of `[Br-].[K+]` [Br−, bromide], the Ki is listed as 63 mM.

same assay, conditions: read-out: Ki hCAII; cited from earlier work

In the case of `CC1(C)O[C@@H]2[C@@H](CO[C@@]3(COS(N)(=O)=O)OC(C)(C)O[C@@H]23)O1` [TPM, topiramate], the Ki is given as 1e-05 mM.

target: recombinant human isoform hCA I; assay: not given; conditions: cited from earlier work

Compared with `O=[N+]([O-])O` [NO3−, nitrate], `O=[Te](=O)(O)O` [TeO4^2−] is 11-fold lower in Ki: 7 mM for the first, 0.66 mM for the second. The second binds more tightly here.

Going from CS3^2− to `OB(O)c1ccccc1` [Ph-B(OH) 2, phenylboronic acid], the Ki rises from 0.0087 mM to 58.6 mM (6700-fold).

Compared with P2O7^4−, `I` [I^−, iodide] is 86-fold lower in Ki: 25.8 mM for the first, 0.3 mM for the second. The second binds more tightly here.

Going from `N#C[SeH]` [SeCN^−] to `O=[As](O)(O)c1ccccc1` [Ph-AsO 3 H 2, phenylarsonic acid], the Ki rises from 0.085 mM to 31.7 mM (370-fold). The first binds more tightly here.

First: S [HS^−, hydrosulfide]
Second: O=S(O)O [HSO3^−]
The Ki of the first is 30000-fold lower: 0.0006 mM for the first, 18 mM for the second. The first binds more tightly here.

Compared with `[Br-].[K+]` [Br−, bromide], `CCN(CC)C(=S)S` [Et2NCS2^−] is 5000-fold lower in Ki: 4 mM for the first, 0.0008 mM for the second.

same assay, conditions: read-out: Ki hCAI; cited from earlier work

In the case of `O=C1NS(=O)(=O)c2ccccc21` [SAC, saccharin], the Ki is listed as 0.0185 mM.

From paper PMC6728359, “Crystal structure and chemical inhibition of essential schistosome host-interactive virulence factor carbonic anhydrase SmCA” (Communications Biology, 2019)
